According to US20040142979A1, “Heteroarylsulfonylmethyl hydroxamic acids and amides and their use as protease inhibitors” (priority 2002, published 2004):
pKi: −log10 of the molar value.

Assays:
Human recombinant MMP-2 = target: T1, Human recombinant MMP-2 (Homo sapiens, UniProt P08253); assay: In vitro MMP inhibition analysis (fluorogenic peptide substrate), MMP-2; format: biochemical; conditions: human recombinant enzyme; 4 μM substrate (A); apparent Ki without substrate correction
T1 construct: made in house; host or cells: MMP-2-transfected p2AHT2 cells
T1 sequence (P08253 110-660): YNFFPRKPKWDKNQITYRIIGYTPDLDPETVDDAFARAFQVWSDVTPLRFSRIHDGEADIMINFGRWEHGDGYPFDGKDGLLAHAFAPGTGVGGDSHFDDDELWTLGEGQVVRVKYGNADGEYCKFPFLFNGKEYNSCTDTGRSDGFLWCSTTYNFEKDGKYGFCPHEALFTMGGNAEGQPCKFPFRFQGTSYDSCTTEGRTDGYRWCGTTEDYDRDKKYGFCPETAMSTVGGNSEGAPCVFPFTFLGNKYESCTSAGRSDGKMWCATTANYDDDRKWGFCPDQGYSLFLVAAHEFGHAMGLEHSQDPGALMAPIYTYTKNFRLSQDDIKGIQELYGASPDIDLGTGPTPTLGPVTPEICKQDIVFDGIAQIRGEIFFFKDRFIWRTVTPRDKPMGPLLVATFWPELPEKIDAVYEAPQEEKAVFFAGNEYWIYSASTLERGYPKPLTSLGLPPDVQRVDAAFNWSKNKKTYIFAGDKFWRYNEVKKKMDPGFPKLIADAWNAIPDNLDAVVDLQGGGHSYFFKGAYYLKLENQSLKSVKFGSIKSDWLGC
Protocol: (§1) Several compounds and salts were analyzed in an in vitro assay to determine their ability to inhibit the MMP cleavage of peptide substrates. Inhibition constant (Ki) were calculated from the assayed compound-MMP interactions.
(§2) Human recombinant MMP-1, MMP-2, MMP-9, MMP-13, and MMP-14 were used in this assay. All enzymes were prepared in Assignee's laboratories following usual laboratory procedures. Protocols for the preparation and use of these enzymes are available in the scientific literature. See, e.g., Enzyme Nomenclature (Academic Press, San Diego, Calif., 1992) (and the citations therein). See also, Freije et al., J. Biol. Chem., 269(24), 16766-16773 (1994).
The MMP-2 proenzyme was purified by gelatin Sepharose chromatography from MMP-2- transfected p2AHT2 cells provided by Dr. Gregory Goldberg of Washington University (St. Louis, Mo.).
(§3) All MMPs were activated using 4-aminophenylmercuric acetate (“APMA”, Sigma Chemical, St. Louis, Mo.) or trypsin. MMP-9 also was activated using human recombinant MMP-3 (purified in Assignee's laboratory following standard cloning and purification techniques).
(§4) The following fluorogenic, methoxycoumarin-containing polypeptide substrate (A) was used in the MMP inhibition assays:
(§5) MCA-ArgProLeuGlyLeuDpaAlaArgGluArgNH2 (A)
(§6) “MCA” is 7-methoxycoumarin-4-yl acetyl. Substrate (A) was prepared Assignee's laboratory. In the absence of MMP inhibitory activity, the substrate is cleaved at the Gly-Leu peptide bond. This cleavage separates the highly fluorogenic peptide from the 2,4-dinitrophenyl quencher, thus resulting in increase of fluorescent intensity.
(§7) The stock solutions of the assayed compounds and salts were prepared in 1% dimethyl sulfoxide (DMSO). These stock solutions were diluted in Buffer A (100 mM Tris-HCl, 100 mM NaCl, 10 mM CaCl2, 0.05% polyoxyethylene 23 lauryl ether, pH 7.5) to obtain solutions with different compound concentrations, i.e., assay solutions with different concentrations of the assayed MMP inhibitory compound. The experiment controls contained the same amount of Buffer A/DMSO as the assayed sample, but contained none of the tested compound or salt.
(§8) The assays from which the Ki determinations were made were performed as follows. The assayed compound samples were incubated in separate wells of untreated white polystyrene plates (Nunc Nalgene International, Rochester, N.Y.), and analyzed on a Tecan SpectraFlour Plus plate reader. The excitation wavelength was 330 nm, and the emission wavelength -420 nm. All samples (assayed compounds and controls) were incubated in separate plate wells at room temperature for 1 hr in the presence of 4 μM of MMP substrate (A). In the absence of MMP inhibitory activity, substrate (A) was cleaved at the Gly-Leu bond resulting in an increase of relative fluorescence. Inhibition was observed as a reduced rate of this increase in relative fluorescence. […] This protocol is a modification of method by Knight et al., FEBS Lett., 296(3), 263-266 (1992). Apparent inhibitory constants were determined by non-linear regression of reaction velocity as a function of inhibitor and enzyme concentration using Morrison's equation, as described by Kuzmic, P., et al., Anal. Biochem., 286(1):45-50 (2000). Modifications were made in the non-linear regression method to allow a common control reaction rate and effective enzyme concentration to be shared between all dose-response relationships on a given assay plate. Since the substrate concentration was chosen to be at or below the Km, the apparent Ki's from this analysis were reported as Ki's without correction for the influence of substrate.
(§9) The above protocols were used to determine MMP inhibition Ki constants for the compounds in Examples 1, 2, and 4-42 above. All Ki values in Table 3 are given in nM units.

Human recombinant MMP-1 = target: T2, Human recombinant MMP-1 (Homo sapiens, UniProt P03956); assay: In vitro MMP inhibition analysis (fluorogenic peptide substrate), MMP-1; format: biochemical; conditions: human recombinant enzyme; 4 μM substrate (A); apparent Ki without substrate correction
T2 construct: made in house; host or cells: MMP-1-transfected HT-1080 cells (spent media)
T2 sequence (P03956 100-469): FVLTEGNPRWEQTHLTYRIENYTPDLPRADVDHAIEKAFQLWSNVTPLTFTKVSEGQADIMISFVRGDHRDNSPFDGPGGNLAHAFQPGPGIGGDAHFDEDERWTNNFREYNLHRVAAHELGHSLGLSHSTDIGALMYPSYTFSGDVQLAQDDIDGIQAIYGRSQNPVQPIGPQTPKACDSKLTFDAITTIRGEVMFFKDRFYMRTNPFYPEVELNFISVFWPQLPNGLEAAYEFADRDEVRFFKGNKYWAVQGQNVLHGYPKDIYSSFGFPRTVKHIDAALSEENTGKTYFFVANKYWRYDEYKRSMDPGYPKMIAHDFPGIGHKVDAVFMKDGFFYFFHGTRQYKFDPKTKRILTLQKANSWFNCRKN
Protocol: as §1, §2
The MMP-1 proenzyme was purified from the spent media of MMP-1-transfected HT-1080 cells provided by Dr. Harold Welgus of Washington University (St. Louis, Mo.). The protein was purified on a zinc chelating column.
as §3, §4, §5, §6, §7, §8, §9

| pKi (Human recombinant MMP-2) | pKi (Human recombinant MMP-1) | SMILES |
| --- | --- | --- |
| 9.32 | < 5.90 | CCCCOc1ccc(-c2ccc(S(=O)(=O)C3(C(=O)NO)CCOCC3)s2)cc1 [Example 43] |
| 9.76 | 5.95 | O=C(NO)C1(S(=O)(=O)c2ccc(-c3ccc(OC(F)(F)C(F)F)cc3)s2)CCOCC1 [Example 44] |
| 8.68 | < 5.00 | CCCCCc1ccc(-c2ccc(S(=O)(=O)C3(C(=O)NO)CCOCC3)cn2)cc1 [Example 45] |
| 9.44 | 5.36 | O=C(NO)C1(S(=O)(=O)c2ccc(-c3ccc(OCC(F)(F)F)cc3)nc2)CCOCC1 [Example 46] |
| 9.56 | 5.83 | O=C(NO)C1(S(=O)(=O)c2ccc(-c3ccc(OC(F)(F)C(F)F)cc3)nc2)CCOCC1 [Example 47] |
| 9.65 | 5.91 | O=C(NO)C1(S(=O)(=O)c2ccc(-c3ccc(OC(F)(F)C(F)F)cc3)nc2)CCOCC1 [Example 48] |
| 8.50 | < 5.00 | O=C(NO)C1(S(=O)(=O)c2ccc(-c3ccc(CCC(F)(F)C(F)(F)F)cn3)s2)CCOCC1 [Example 49] |
| 7.53 | < 5.00 | O=C(NO)C1(S(=O)(=O)c2ccc(-c3ccc(C(F)(F)F)cn3)s2)CCOCC1 [Example 50] |
| 8.68 | 5.19 | O=C(NO)C1(S(=O)(=O)c2ccc3nc(-c4ccc(OC(F)(F)F)cc4)sc3c2)CCOCC1 [Example 51] |
| 7.12 | < 5.00 | CCCCc1ccc(C(=O)C2CCN(c3nc4ccc(S(=O)(=O)C5(C(=O)NO)CCOCC5)cc4s3)CC2)s1 [Example 52] |
| 8.45 | < 5.00 | CCCc1ccc(-c2nc3ccc(S(=O)(=O)C4(C(=O)NO)CCOCC4)cc3s2)cc1 [Example 53] |
| 7.45 | < 5.00 | CC(C)Cc1ncc(-c2nc3ccc(S(=O)(=O)C4(C(=O)NO)CCOCC4)cc3s2)s1 [Example 54] |
| 6.21 | < 5.00 | O=C(NO)C1(S(=O)(=O)c2ccc3nc(-c4cccc(C(F)(F)F)c4)sc3c2)CCOCC1 [Example 55] |
| 7.39 | < 5.00 | O=C(NO)C1(S(=O)(=O)c2ccc3nc(N4CCC(Oc5ccc(OC(F)(F)F)cc5)CC4)sc3c2)CCOCC1 [Example 56] |
| 8.73 | < 5.00 | O=C(NO)C1(S(=O)(=O)c2ccc3nc(-c4ccc(C(F)(F)F)cc4)sc3c2)CCOCC1 [Example 57] |
| 8.82 | < 5.00 | CCc1ccc(-c2nc3ccc(S(=O)(=O)C4(C(=O)NO)CCOCC4)cc3s2)cc1 [Example 58] |
| 8.70 | < 5.90 | O=C(NO)C1(S(=O)(=O)c2ccc3nc(-c4ccc(Cl)s4)sc3c2)CCOCC1 [Example 59] |
| 7.99 | 5.55 | O=C(NO)C1(S(=O)(=O)c2ccc3nc(-c4ccc(F)c(F)c4)sc3c2)CCOCC1 [Example 60] |
| 7.83 | < 5.00 | O=C(NO)C1(S(=O)(=O)c2ccc3nc(-c4ccc(F)cc4F)sc3c2)CCOCC1 [Example 61] |

| pKi (Human recombinant MMP-2) | pKi (Human recombinant MMP-1) | SMILES |
| --- | --- | --- |
| 8.32 | 5.69 | O=C(NO)C1(S(=O)(=O)c2ccc3nc(-c4ccsc4)sc3c2)CCOCC1 [Example 62] |
| 8.65 | 5.04 | COCCN1CCC(C(=O)NO)(S(=O)(=O)c2ccc3nc(-c4ccc(OC(F)(F)F)cc4)sc3c2)CC1 [Example 63] |
| 6.82 | < 5.00 | O=C(NO)C1(S(=O)(=O)c2ccc3nc(-n4cnc(-c5ccccc5)c4)sc3c2)CCOCC1 [Example 64] |
| 8.35 | < 5.90 | O=C(NO)C1(S(=O)(=O)c2ccc3nc(-c4ccc5c(c4)OCO5)sc3c2)CCOCC1 [Example 65] |
| 8.66 | < 6.51 | CCOc1ccc(-c2nc3ccc(S(=O)(=O)C4(C(=O)NO)CCOCC4)cc3s2)cc1 [Example 66] |
| 8.56 | < 5.00 | O=C(NO)C1(S(=O)(=O)c2ccc3nc(-c4ccc(SC(F)(F)F)cc4)sc3c2)CCOCC1 [Example 67] |
| 9.18 | < 5.00 | O=C(NO)C1(S(=O)(=O)c2ccc(-c3ccc(CCC(F)(F)F)cc3)nc2)CCOCC1 [Example 68] |
| 9.12 | < 5.00 | O=C(NO)C1(S(=O)(=O)c2ccc(-c3ccc(CCC(F)(F)C(F)(F)F)cc3)nc2)CCOCC1 [Example 69] |
| 5.74 | < 5.00 | CCCCc1ccc(C(=O)C2CCN(c3ccc(S(=O)(=O)C4(C(=O)NO)CCOCC4)cn3)CC2)s1 [Example 70] |
| 6.26 | < 5.00 | CC(C)CN(C)C(=O)Cc1ccc(-c2ccc(S(=O)(=O)C3(C(=O)NO)CCOCC3)cn2)cc1 [Example 71] |
| 6.52 | < 5.00 | O=C(Cc1ccc(-c2ccc(S(=O)(=O)C3(C(=O)NO)CCOCC3)cn2)cc1)N1CCCCC1 [Example 72] |
| 7.04 | < 5.00 | CCCCNC(=O)Cc1ccc(-c2ccc(S(=O)(=O)C3(C(=O)NO)CCOCC3)cn2)cc1 [Example 73] |
| 6.41 | < 5.00 | CCCCN(C)C(=O)Cc1ccc(-c2ccc(S(=O)(=O)C3(C(=O)NO)CCOCC3)cn2)cc1 [Example 74] |
| 9.66 | < 5.00 | CN(C(=O)Cc1ccc(-c2ccc(S(=O)(=O)C3(C(=O)NO)CCOCC3)cn2)cc1)c1ccc(OC(F)(F)F)cc1 [Example 75] |
| 7.58 | 5.38 | CCCCNC(=O)c1ccc(-c2ccc(S(=O)(=O)C3(C(=O)NO)CCOCC3)cn2)cc1 [Example 76] |
| 6.05 | < 5.00 | CN(C(=O)c1ccc(-c2ccc(S(=O)(=O)C3(C(=O)NO)CCOCC3)cn2)cc1)c1ccccc1 [Example 78] |
| 5.09 | < 5.00 | CCN(CC)C(=O)c1ccc(-c2ccc(S(=O)(=O)C3(C(=O)NO)CCOCC3)cn2)cc1 [Example 79] |
| 5.69 | < 5.00 | CN(C(=O)c1ccc(-c2ccc(S(=O)(=O)C3(C(=O)NO)CCOCC3)cn2)cc1)c1ccc(OC(F)(F)F)cc1 [Example 81] |
| 6.18 | < 5.00 | CC(C)CN(C)C(=O)c1ccc(-c2ccc(S(=O)(=O)C3(C(=O)NO)CCOCC3)cn2)cc1 [Example 82] |
